Target: T1, IRAK4 (Canis lupus familiaris, UniProt A0A8I3S726)
T1 sequence (A0A8I3S726 1-460): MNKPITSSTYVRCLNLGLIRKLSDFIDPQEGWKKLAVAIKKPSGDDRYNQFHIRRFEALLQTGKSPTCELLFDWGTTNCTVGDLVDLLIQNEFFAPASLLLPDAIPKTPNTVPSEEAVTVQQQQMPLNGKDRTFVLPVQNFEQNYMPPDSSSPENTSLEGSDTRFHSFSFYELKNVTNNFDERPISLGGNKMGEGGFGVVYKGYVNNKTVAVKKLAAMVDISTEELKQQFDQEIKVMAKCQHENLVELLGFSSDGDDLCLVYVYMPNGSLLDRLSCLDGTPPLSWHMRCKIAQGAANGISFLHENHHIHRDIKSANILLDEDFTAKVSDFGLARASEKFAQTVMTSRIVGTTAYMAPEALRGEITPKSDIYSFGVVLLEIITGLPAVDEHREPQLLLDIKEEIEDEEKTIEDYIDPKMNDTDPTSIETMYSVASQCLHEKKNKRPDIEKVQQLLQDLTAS
Assay: Pharmacodynamics (PD) in Male Beagle Dogs, IRAK4 quantitation in PBMCs by nanoLC-MS/MS
Format: in vivo
Details: male beagle dog PBMCs
Experimental: Assay 4. Pharmacodynamics (PD) in Male Beagle Dogs
Pharmacodynamics (PD) biomarker analyses of male beagle dog PMBCs from the whole blood timepoint samples collected in Assay 3 were performed.
For isolation of PBMCs, the whole blood timepoint samples described in Assay 3 above were processed immediately to ensure high viability of PBMCs. All the samples were processed at 18° C. to 20° C. The freshly collected whole blood (2 mL) was mixed with an equal volume of phosphate buffered saline. This mixture was inverted several times to ensure thorough mixing. The Histopaque® (Catalog no. 10771, Sigma-Aldrich, St. Louis, MO) bottle was inverted several times to ensure uniformity of the medium. A sterile syringe was used to draw 2 mL of Histopaque® medium and added to a sterile centrifuge tube. The whole blood-PBS sample (4 ml) was carefully layered on top of the Histopaque® medium, without mixing. The tube was centrifuge at 600 g for 30 to 40 min at 18° C. to 20° C. with the brakes turned off. The upper layer containing plasma and platelets was withdrawn slowly using a sterile pipette, leaving the PBMC cell layer undisturbed at the interface. The PBMC layer was transferred to a sterile centrifuge tube using a sterile pipette. The PBMCs were washed with 3 volumes (˜6 mL) of Hank's balanced salt solution (HBSS) (Gibco, Grand Island, NY) in the centrifuge tube. The cells were suspended by gently drawing them in and out of a pipette. The tubes were centrifuged at 250 g for 10 to 15 minutes at 18° C. to 20° C. and the supernatant discarded. The PBMCs were then resuspended in 6 to 8 ml of HBSS. For cell counting, the cell suspension was diluted 1:1 with Trypan Blue dye and mixed well. The cell numbers (live and dead) were counted, and cell viability calculated. The cell numbers and cell viability of each PBMC sample were recorded. The tube was centrifuged again at 500 g for 10 min at 18° C. to 20° C. The supernatant was removed, and the cell pellet was frozen at −80° C.
The frozen dog PBMC cell pellets were homogenized in two pellet volumes of lysis buffer (100 mM triethylammonium bicarbonate (TEAB), 4% SDS, 1× Roche protease inhibitor cocktail) by sonicating at 150 watt for 10 seconds in a 4° C. water bath using an E220 focused-ultrasonicator (Covaris, Woburn, MA, USA). Lysates were then clarified by centrifugation at 18,000 g for 20 minutes at 4° C. and protein concentrations were determined by bicinchoninic acid (BCA) assay (ThermoFisher Scientific, Waltham, MA, USA).
For protein digestion, an equal amount of protein was taken from each sample. Proteins were reduced with 10 mM DTT for 10 minutes at 70° C. and alkylated with 25 mM iodoacetamide for 30 minutes in the dark. Tryptic digestion was performed with S-Trap™ method (Protifi, Farmingdale, NY, USA) overnight at 37° C. In brief, samples were mixed with 90% MeOH in 100 mM TEAB containing 10% (w/w) trypsin and loaded onto an in-house packed S-Trap microcolumns. Samples were washed with 90% MeOH in 100 mM TEAB, and digested in 100 mM TEAB for 16 hours at 37° C. The resulting peptides were spiked with five heavy-labeled IRAK4 peptides (Vivitide, LLC, Gardner, MA, USA) at 2 fmol each (column loading), desalted using C18 StageTip, SpeedVac dried, and kept at −80 C until nanoLC-MS/MS analysis.
Peptide analysis was performed on a nanoLC-MS/MS platform composed of a Q Exactive HF mass spectrometer coupled to an EASY-nLC 1200 (ThermoFisher Scientific). Peptides were separated on an EASY-Spray™ C18 column (50 cm×75 am, 2 am) (ThermoFisher Scientific) at 50° C. Mobile phases were 0.1% formic acid in water (A) and 80% acetonitrile, 0.1% formic acid (B). Peptides were eluted with a 100-min method over an effective 80 min gradient from […] to 45% B at a flow rate of 275 nL/min. Peptides were ionized with a spray voltage of 1,800 V. Mass spectrometric data were acquired at parallel reaction monitoring (PRM) mode including five pairs of light and heavy IRAK4 peptides (Table 7 below). […]

| Structure (SMILES) | IRAK4 change from vehicle (time 0 h) | IRAK4 change from vehicle (time 2 h) [%] | IRAK4 change from vehicle (time 24 h) [%] | IRAK4 change from vehicle (time 48 h) [%] | IRAK4 change from vehicle (time 96 h) [%] |
| --- | --- | --- | --- | --- | --- |
| CC(C)Oc1cc2nc([C@H]3CC[C@H](CN4CCC(c5ccc6c(c5)n(C)c(=O)n6C5CCC(=O)NC5=O)CC4)CC3)cn2cc1C(=O)Nc1cccn([C@H]2C[C@H]2F)c1=O (stereo partly drawn) [Compound 169, 2-((1R,4S)-4-((4-(1-(2,6-dioxopiperidin-3-yl)-3-methyl-2-oxo-2,3-dihydro-1H-benzo[d]imidazol-5-yl)piperidin-1-yl)methyl)cyclohexyl)-N-(1-((1S,2R)-2-fluorocyclopropyl)-2-oxo-1,2-dihydropyridin-3-yl)-7-isopropoxyimidazo[1,2-a]pyridine-6-carboxamide] | −11% | −57 | −97 | −96 | −95 |
| CC(C)Oc1cc2nc([C@H]3CC[C@H](CN4CCC(c5ccc6c(c5)n(C)c(=O)n6C5CCC(=O)NC5=O)CC4)CC3)cn2cc1C(=O)Nc1cnn2cccnc12 (stereo partly shown) [Compound 48, 2-[4-[[4-[1-(2,6-dioxo-3-piperidyl)-3-methyl-2-oxo-benzimidazol-5-yl]-1-piperidyl]methyl]cyclohexyl]-7-isopropoxy-N-pyrazolo[1,5-a]pyrimidin-3-yl-imidazo[1,2-a]pyridine-6-carboxamide] | +12% | −51 | −97 | −95 | −95 |
